Results as given in PMC12832182 (Science (New York, N.Y.), 2025).

Target: T1, non-Cathepsin L-processed, but self-cleaved enzyme (LyLAP) (Homo sapiens, UniProt Q6P4A8)
T1 sequence (Q6P4A8 39-227): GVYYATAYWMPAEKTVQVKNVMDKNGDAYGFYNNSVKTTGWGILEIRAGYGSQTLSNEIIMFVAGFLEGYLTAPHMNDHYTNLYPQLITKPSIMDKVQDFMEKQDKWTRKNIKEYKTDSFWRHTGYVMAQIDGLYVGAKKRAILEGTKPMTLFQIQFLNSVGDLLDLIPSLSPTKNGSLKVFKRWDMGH
T1 sequence (Q6P4A8 228-553): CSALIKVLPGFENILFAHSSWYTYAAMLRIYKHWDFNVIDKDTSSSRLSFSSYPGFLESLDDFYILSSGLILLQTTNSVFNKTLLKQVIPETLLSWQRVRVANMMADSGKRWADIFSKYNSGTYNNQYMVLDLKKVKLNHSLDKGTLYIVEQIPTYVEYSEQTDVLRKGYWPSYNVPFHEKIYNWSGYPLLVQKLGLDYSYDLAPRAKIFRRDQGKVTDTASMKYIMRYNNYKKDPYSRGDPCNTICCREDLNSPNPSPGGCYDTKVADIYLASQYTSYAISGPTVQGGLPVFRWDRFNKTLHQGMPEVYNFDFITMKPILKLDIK
Experiment: fluorogenic AMC release
Assay type: biochemical
Conditions: lysosomal pH buffer pH 4.5, 37°C; without cathepsin L preactivation

For `Cc1cc(=O)oc2cc(NC(=O)[C@@H](N)CC(C)C)ccc12` [Leu-AMC, L-Leucine-7-amido-4-methylcoumarin], the “fluorogenic AMC release” value was “increased catalysis toward single amino acid substrates and, more substantially, toward tripeptide substrates”.
